Reference: patent publication US6352958B1, “Cycloimido-substituted benzofused heterocyclic herbicides” (FMC Corporation, priority 1997, dated 2002)

What was measured:
Type in all cases: in vivo
[1] = test system: soybean (Glycine max var. Winchester); assay: Preemergence herbicidal activity, soybean; details: Rate of Application 0.3 Kg/Ha, examined after 12-17 days
[2] = test system: wheat (Triticum aestivum var. Lew); assay: Preemergence herbicidal activity, wheat; details: Rate of Application 0.3 Kg/Ha, examined after 12-17 days
[3] = test system: field corn (Zea mays var. Pioneer 3732); assay: Preemergence herbicidal activity, corn; details: Rate of Application 0.3 Kg/Ha, examined after 12-17 days
[4] = test system: velvetleaf (Abutilon theophrasti); assay: Preemergence herbicidal activity, velvetleaf; details: Rate of Application 0.3 Kg/Ha, examined after 12-17 days
[5] = test system: morningglory (Ipomea lacunosa or Ipomea hederacea); assay: Preemergence herbicidal activity, morningglory; details: Rate of Application 0.3 Kg/Ha, examined after 12-17 days
[6] = test system: common chickweed (Stellaria media); assay: Preemergence herbicidal activity, chickweed; details: Rate of Application 0.3 Kg/Ha, examined after 12-17 days
[7] = test system: green foxtail (Setaria viridis); assay: Preemergence herbicidal activity, green foxtail; details: Rate of Application 0.3 Kg/Ha, examined after 12-17 days
[8] = test system: Johnsongrass (Sorghum halepense); assay: Preemergence herbicidal activity, johnsongrass; details: Rate of Application 0.3 Kg/Ha, examined after 12-17 days
[9] = test system: soybean (Glycine max var. Winchester); assay: Postemergence herbicidal activity, soybean; details: rate of application 0.3 Kg/Ha, rated after 12-17 days
[10] = test system: wheat (Triticum aestivum var. Lew); assay: Postemergence herbicidal activity, wheat; details: rate of application 0.3 Kg/Ha, rated after 12-17 days
[11] = test system: field corn (Zea mays var. Pioneer 3732); assay: Postemergence herbicidal activity, corn; details: rate of application 0.3 Kg/Ha, rated after 12-17 days
[12] = test system: velvetleaf (Abutilon theophrasti); assay: Postemergence herbicidal activity, velvetleaf; details: rate of application 0.3 Kg/Ha, rated after 12-17 days
[13] = test system: morningglory (Ipomea lacunosa or Ipomea hederacea); assay: Postemergence herbicidal activity, morningglory; details: rate of application 0.3 Kg/Ha, rated after 12-17 days
[14] = test system: common chickweed (Stellaria media); assay: Postemergence herbicidal activity, chickweed; details: rate of application 0.3 Kg/Ha, rated after 12-17 days
[15] = test system: common cocklebur (Xanthium strumarium L.); assay: Postemergence herbicidal activity, cocklebur; details: rate of application 0.3 Kg/Ha, rated after 12-17 days
[16] = test system: blackgrass (Aloepecurus myosuroides); assay: Postemergence herbicidal activity, blackgrass; details: rate of application 0.3 Kg/Ha, rated after 12-17 days
[17] = test system: green foxtail (Setaria viridis); assay: Postemergence herbicidal activity, green foxtail; details: rate of application 0.3 Kg/Ha, rated after 12-17 days
[18] = test system: Johnsongrass (Sorghum halepense); assay: Postemergence herbicidal activity, johnsongrass; details: rate of application 0.3 Kg/Ha, rated after 12-17 days
[19] = test system: common cocklebur (Xanthium strumarium L.); assay: Preemergence herbicidal activity, cocklebur; details: Rate of Application 0.3 Kg/Ha, examined after 12-17 days
[20] = test system: blackgrass (Aloepecurus myosuroides); assay: Preemergence herbicidal activity, blackgrass; details: Rate of Application 0.3 Kg/Ha, examined after 12-17 days

| Compound | PREEMERGENCE HERBICIDAL ACTIVITY (% CONTROL) SOY [1] [%] | PREEMERGENCE HERBICIDAL ACTIVITY (% CONTROL) WHT [2] [%] | PREEMERGENCE HERBICIDAL ACTIVITY (% CONTROL) CRN [3] [%] | PREEMERGENCE HERBICIDAL ACTIVITY (% CONTROL) ABUTH [4] [%] | PREEMERGENCE HERBICIDAL ACTIVITY (% CONTROL) IPOSS [5] [%] | PREEMERGENCE HERBICIDAL ACTIVITY (% CONTROL) STEME [6] [%] | PREEMERGENCE HERBICIDAL ACTIVITY (% CONTROL) SETVI [7] [%] | PREEMERGENCE HERBICIDAL ACTIVITY (% CONTROL) SORHA [8] [%] | Postemergence herbicidal activity (% control) SOY [9] [%] | Postemergence herbicidal activity (% control) WHT [10] [%] | Postemergence herbicidal activity (% control) CRN [11] [%] | Postemergence herbicidal activity (% control) ABUTH [12] [%] | Postemergence herbicidal activity (% control) IPOSS [13] [%] | Postemergence herbicidal activity (% control) STEME [14] [%] | Postemergence herbicidal activity (% control) XANPE [15] [%] | Postemergence herbicidal activity (% control) ALOMY [16] [%] | Postemergence herbicidal activity (% control) SETVI [17] [%] | Postemergence herbicidal activity (% control) SORHA [18] [%] | PREEMERGENCE HERBICIDAL ACTIVITY (% CONTROL) XANPE [19] [%] | PREEMERGENCE HERBICIDAL ACTIVITY (% CONTROL) ALOMY [20] [%] |
| --- | --- | --- | --- | --- | --- | --- | --- | --- | --- | --- | --- | --- | --- | --- | --- | --- | --- | --- | --- | --- |
| Cc1cc2c(Cl)ccc(-n3c(=O)cc(C(F)(F)F)n(C)c3=O)c2o1 [Compound 221] | 70 | 60 | 85 | 100 | 100 | 80 | 100 | 95 | 95 | 50 | 60 | 100 | 100 | 100 | 60 | 40 | 70 | 70 | – | – |
| Cc1cc2c(Cl)cc(F)c(-n3c(=O)cc(C(F)(F)F)n(C)c3=O)c2o1 [Compound 222] | 100 | 70 | 90 | 100 | 100 | 100 | 100 | 100 | 100 | 70 | 90 | 100 | 100 | 100 | 100 | 100 | 100 | 100 | 100 | – |
| Cn1c(C(F)(F)F)cc(=O)n(-c2c(F)cc(Cl)c3cc(C(C)(C)N)oc23)c1=O [Compound 254] | 25 | 20 | 80 | 100 | 50 | 30 | 100 | 80 | 95 | 40 | 80 | 100 | 70 | – | 95 | 50 | 100 | 80 | 50 | 60 |
| Cn1c(C(F)(F)F)cc(=O)n(-c2ccc(Cl)c3cc(C=NO)oc23)c1=O [Compound 258] | 30 | 30 | 75 | 100 | 60 | 0 | 40 | 40 | 80 | 30 | 60 | 80 | 70 | 5 | 50 | 30 | 60 | 50 | 60 | – |
